Holding throughout (format): cell-based
Test [1] has as its system E. coli ATCC25922. The experiment in a line: Antibacterial activity in combination with linezolid (growth inhibition). To be noted: Escherichia coli, ATCC25922, compound at 50 μM; linezolid 128 μg/mL; OD625 23 h minus 1 h; read-out: residual growth of E. coli ATCC25922 (% of uninhibited control) with linezolid. On the procedure:
Antibacterial activity in combination with minocycline or with linezolid
Inhibition of growth was measured with E. coli ATCC25922 and P. aeruginosa PAO1 in a 96-well plate format. Cation-adjusted Müller-Hinton broth (caMHB) was inoculated with an overnight culture and incubated at 37° C. on a shaker until OD625 reached 0.6 to 0.7. Density was adjusted to OD600=0.5 by addition of caMHB. 35 μL of the suspension were diluted to 35 mL with caMHB and supplemented with minocycline at the subinhibitory doses of 0.25 μg/mL for E. coli and 8 μg/mL for P. aeruginosa or with linezolid at the subinhibitory dose of 128 μg/mL for E. coli and P. aeruginosa. Each well contained 1 μL of test compound in 100 μL caMHB with minocycline or with linezolid.
Plates were incubated at 37° C. on a plate shaker. OD625 was measured at 1 h, 6 h, and at 23 h.
The difference between OD at 23 h and at 1 h was taken as measure for cell density and compared to controls without inhibitor (i.e. uninhibited control). Results were expressed as residual growth (% of uninhibited control). Enhancement of minocycline or linezolid activity caused reduced residual growth.

In the next test the test system is P. aeruginosa PAO1. Briefly: Antibacterial activity in combination with minocycline (growth inhibition). To be noted: Pseudomonas aeruginosa, PAO1, compound at 50 μM; minocycline 8 μg/mL; OD625 23 h minus 1 h; read-out: residual growth of P. aeruginosa PAO1 (% of uninhibited control) with minocycline. In short, it runs like this:
(§1)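 Test compound combined with fixed subinhibitory partner antibiotic: linezolid 128 μg/mL for either strain, minocycline 0.25 μg/mL (E. coli) or 8 μg/mL (P. aeruginosa), in caMHB shaken at 37 °C. Residual growth as % of inhibitor-free control, from OD625 at 23 h minus 1 h.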

The subject of test [2] is E. coli ATCC25922. The description is as above. To be noted: Escherichia coli, ATCC25922, compound at 25 μM; minocycline 0.25 μg/mL; OD625 23 h minus 1 h; read-out: residual growth of E. coli ATCC25922 (% of uninhibited control) with minocycline. In short, it runs like this: as §1

For `CC(C)COc1cc(/C=C/c2cccnc2)cc(C(=O)CNCC2CCNC2)c1` (centres unmarked) [Example 502, 1-[3-isobutoxy-5-[(E)-2-(3-pyridyl)vinyl]phenyl]-2-(pyrrolidin-3-ylmethylamino)ethanone], the activity at 50 µM in the test with E. coli ATCC25922 [1] and in the test with P. aeruginosa PAO1 was ≤ 50% in each case. Regarding `Brc1ncccc1COc1cccc(CNCC2CNC2)c1` [Example 48], the activity at 50 µM in the test on E. coli ATCC25922 [1] was ≤ 50%.

On to `Clc1ccc(COc2ccc(CCNCC3CNC3)cc2)c(Br)c1` [Example 100], for which the activity at 50 µM with E. coli ATCC25922 [1] was ≤ 50%. Further, the activity at 25 µM in the test with E. coli ATCC25922 [2] was ≤ 10%. For the molecule `C[N+](C)(CC(=O)O)Cc1cc(CNCC2CNC2)cc(OCc2ccc(Cl)cc2Br)c1` [Example 232], the activity at 50 µM in the test with E. coli ATCC25922 [1] was ≤ 50%.

As to `N#Cc1cncc(/C=C/c2cc(CNCC3CCNC3)cc(OCc3n[nH]c(=O)o3)c2)c1` (centres unmarked) [Example 491, 5-[(E)-2-[3-[(2-oxo-3H-1,3,4-oxadiazol-5-yl)methoxy]-5-[(pyrrolidin-3-ylmethylamino)methyl]phenyl]vinyl]pyridine-3-carbonitrile], in the test on E. coli ATCC25922 [1], the activity at 50 µM was ≤ 50%. Turning to `O=C(Nc1ccc(CNCC2CCNC2)cc1Cl)c1ccc(C(F)(F)F)cc1C(F)(F)F` (centres unmarked) [Example 160], the activity at 50 µM in the test with E. coli ATCC25922 [1] is ≤ 50%. Turning to `c1cncc(COc2cc(CNCC3CNC3)cc(OCCN3CCOCC3)c2)c1` [Example 428], the activity at 50 µM in the test on E. coli ATCC25922 [1] was ≤ 50%. Still for that read-out and setting: for `CS(=O)(=O)c1ccc(COc2ccc(CNCC3CNC3)cc2)c(Cl)c1` [Example 78] the value was ≤ 50%. Turning to `N#Cc1ccc(COc2ccc(CNCC3CNC3)cc2)cc1` [Example 76], in the test with E. coli ATCC25922 [1], the activity at 50 µM is ≤ 50%. With `O=C(NCCN(CC1CNC1)CC1CNC1)c1cc(CNC(=O)c2cccnc2)cc(OCCc2ccncc2)c1` [Example 507, N-[[3-[2-[bis(azetidin-3-ylmethyl)amino]ethylcarbamoyl]-5-[2-(4-pyridyl)ethoxyl]phenyl]methyl]pyridine-3-carboxamide], the activity at 50 µM in the test on E. coli ATCC25922 [1] and in the test on P. aeruginosa PAO1 was ≤ 50% throughout. Consider `C(=C\c1cc(CNCC2CNC2)cc(OCCN2CCOCC2)c1)/c1cccnc1` [Example 442], for which the activity at 50 µM with E. coli ATCC25922 [1] was ≤ 50%. For the molecule `O=C(O)c1cc(CNCC2CNC2)cc(OCc2ccc(Cl)cc2Br)c1` [Example 110], the activity at 50 µM in the test with E. coli ATCC25922 [1] is ≤ 50%.

As for `CC(C)COc1cc(CNCC2CCNC2)cc(S(=O)(=O)Cc2cccnc2)c1` (centres unmarked) [Example 495], in the test with E. coli ATCC25922 [1], the activity at 50 µM is ≤ 50%. As for `C=CCOc1cc(/C=C/c2cncc(C(=O)O)c2)cc(CNCC2CCNC2)c1` (centres unmarked) [Example 449], the activity at 50 µM with E. coli ATCC25922 [1] is ≤ 50%.

For the molecule `c1cncc(COc2cc(CNCC3CCNC3)cc(OCCc3ccncc3)c2)c1` (centres unmarked) [Example 427], in the test with E. coli ATCC25922 [1], the activity at 50 µM is ≤ 50%.

As to `O=C(CNCC1CCNC1)c1cccc(OCc2ccc(Cl)cc2Br)c1` (centres unmarked) [Example 143], the activity at 50 µM with E. coli ATCC25922 [1] is ≤ 50%.

For `C=CCOc1cc(/C=C/c2ccc(Cl)cc2Br)cc(C(=O)NCCN(CC2CNC2)CC2CNC2)c1` [Example 447], the activity at 50 µM in the test with E. coli ATCC25922 [1] is ≤ 50%. Besides, the activity at 25 µM in the test on E. coli ATCC25922 [2] was ≤ 10%.

As for `N#Cc1cncc(/C=C/c2cc(CNCC3CCNC3)cc(OCCN3CCOCC3)c2)c1` (centres unmarked) [Example 484, 5-[(E)-2-[3-(2-morpholinoethoxy)-5-[(pyrrolidin-3-ylmethylamino)methyl]phenyl]vinyl]pyridine-3-carbonitrile], the activity at 50 µM in the test with E. coli ATCC25922 [1] was ≤ 50%. Take `CN(CC(=O)O)Cc1cc(CNCC2CNC2)cc(OCc2ccc(Cl)cc2Br)c1` [Example 244]: in the test on E. coli ATCC25922 [1], the activity at 50 µM is ≤ 50%. Consider `O=C(Nc1ccc(CNCC2CNC2)cc1Cl)c1ccc(Cl)cc1C(F)(F)F` [Example 161], for which the activity at 50 µM with E. coli ATCC25922 [1] is ≤ 50%.

With `O=C(NCCN(CC1CNC1)CC1CNC1)c1cc(OCCc2ccncc2)cc(OCc2cccnc2)c1` [Example 506, N-[2-[bis(azetidin-3-ylmethyl)amino]ethyl]-3-[2-(4-pyridyl)ethoxy]-5-(3-pyridylmethoxy)benzamide], the activity at 50 µM in the test on E. coli ATCC25922 [1] is ≤ 50%. As to `N#Cc1cncc(/C=C/c2cc(OCc3ccccn3)cc(CNCC3CCNC3)n2)c1` (centres unmarked) [Example 482], in the test with E. coli ATCC25922 [1], the activity at 50 µM is ≤ 50%.

For the origin of these results see patent US10464896B2, “Efflux-pump inhibitors and therapeutic uses thereof” (Basilea Pharmaceutica International AG, priority 2015, dated 2019).
